Columns and labels:
[1] = biological target: T1, Leucine-rich repeat serine/threonine-protein kinase 2 (Homo sapiens, UniProt Q5S007); test: Inhibition of LRRK2 in human PBMCs assessed as reduction in […] phosphorylation
[2] = biological target: Histone-lysine N-methyltransferase EZH2 (Homo sapiens, UniProt Q15910); test: Inhibition of EZH2 (unknown origin)
[3] = biological target: Mast/stem cell growth factor receptor Kit (Homo sapiens, UniProt P10721, D816V); test: Inhibition of KIT D816V mutant (unknown origin)
[4] = biological target: Platelet-derived growth factor receptor alpha (Homo sapiens, UniProt P16234, D842V); test: Inhibition of PDGFRalpha D842V mutant (unknown origin)
[5] = biological target: T1, Leucine-rich repeat serine/threonine-protein kinase 2; test: Inhibition of LRRK2 (unknown origin)
Protease = Protease (Human immunodeficiency virus 1, UniProt Q9YQ12); test: Inhibition of HIV protease
[6] = Metabolic stability in human liver microsomes assessed as intrinsic clearance; assay type: ADME, Microsome
[7] = Aqueous solubility of compound at pH 2; assay type: physicochemical

T1 sequence (Q5S007 whole entry): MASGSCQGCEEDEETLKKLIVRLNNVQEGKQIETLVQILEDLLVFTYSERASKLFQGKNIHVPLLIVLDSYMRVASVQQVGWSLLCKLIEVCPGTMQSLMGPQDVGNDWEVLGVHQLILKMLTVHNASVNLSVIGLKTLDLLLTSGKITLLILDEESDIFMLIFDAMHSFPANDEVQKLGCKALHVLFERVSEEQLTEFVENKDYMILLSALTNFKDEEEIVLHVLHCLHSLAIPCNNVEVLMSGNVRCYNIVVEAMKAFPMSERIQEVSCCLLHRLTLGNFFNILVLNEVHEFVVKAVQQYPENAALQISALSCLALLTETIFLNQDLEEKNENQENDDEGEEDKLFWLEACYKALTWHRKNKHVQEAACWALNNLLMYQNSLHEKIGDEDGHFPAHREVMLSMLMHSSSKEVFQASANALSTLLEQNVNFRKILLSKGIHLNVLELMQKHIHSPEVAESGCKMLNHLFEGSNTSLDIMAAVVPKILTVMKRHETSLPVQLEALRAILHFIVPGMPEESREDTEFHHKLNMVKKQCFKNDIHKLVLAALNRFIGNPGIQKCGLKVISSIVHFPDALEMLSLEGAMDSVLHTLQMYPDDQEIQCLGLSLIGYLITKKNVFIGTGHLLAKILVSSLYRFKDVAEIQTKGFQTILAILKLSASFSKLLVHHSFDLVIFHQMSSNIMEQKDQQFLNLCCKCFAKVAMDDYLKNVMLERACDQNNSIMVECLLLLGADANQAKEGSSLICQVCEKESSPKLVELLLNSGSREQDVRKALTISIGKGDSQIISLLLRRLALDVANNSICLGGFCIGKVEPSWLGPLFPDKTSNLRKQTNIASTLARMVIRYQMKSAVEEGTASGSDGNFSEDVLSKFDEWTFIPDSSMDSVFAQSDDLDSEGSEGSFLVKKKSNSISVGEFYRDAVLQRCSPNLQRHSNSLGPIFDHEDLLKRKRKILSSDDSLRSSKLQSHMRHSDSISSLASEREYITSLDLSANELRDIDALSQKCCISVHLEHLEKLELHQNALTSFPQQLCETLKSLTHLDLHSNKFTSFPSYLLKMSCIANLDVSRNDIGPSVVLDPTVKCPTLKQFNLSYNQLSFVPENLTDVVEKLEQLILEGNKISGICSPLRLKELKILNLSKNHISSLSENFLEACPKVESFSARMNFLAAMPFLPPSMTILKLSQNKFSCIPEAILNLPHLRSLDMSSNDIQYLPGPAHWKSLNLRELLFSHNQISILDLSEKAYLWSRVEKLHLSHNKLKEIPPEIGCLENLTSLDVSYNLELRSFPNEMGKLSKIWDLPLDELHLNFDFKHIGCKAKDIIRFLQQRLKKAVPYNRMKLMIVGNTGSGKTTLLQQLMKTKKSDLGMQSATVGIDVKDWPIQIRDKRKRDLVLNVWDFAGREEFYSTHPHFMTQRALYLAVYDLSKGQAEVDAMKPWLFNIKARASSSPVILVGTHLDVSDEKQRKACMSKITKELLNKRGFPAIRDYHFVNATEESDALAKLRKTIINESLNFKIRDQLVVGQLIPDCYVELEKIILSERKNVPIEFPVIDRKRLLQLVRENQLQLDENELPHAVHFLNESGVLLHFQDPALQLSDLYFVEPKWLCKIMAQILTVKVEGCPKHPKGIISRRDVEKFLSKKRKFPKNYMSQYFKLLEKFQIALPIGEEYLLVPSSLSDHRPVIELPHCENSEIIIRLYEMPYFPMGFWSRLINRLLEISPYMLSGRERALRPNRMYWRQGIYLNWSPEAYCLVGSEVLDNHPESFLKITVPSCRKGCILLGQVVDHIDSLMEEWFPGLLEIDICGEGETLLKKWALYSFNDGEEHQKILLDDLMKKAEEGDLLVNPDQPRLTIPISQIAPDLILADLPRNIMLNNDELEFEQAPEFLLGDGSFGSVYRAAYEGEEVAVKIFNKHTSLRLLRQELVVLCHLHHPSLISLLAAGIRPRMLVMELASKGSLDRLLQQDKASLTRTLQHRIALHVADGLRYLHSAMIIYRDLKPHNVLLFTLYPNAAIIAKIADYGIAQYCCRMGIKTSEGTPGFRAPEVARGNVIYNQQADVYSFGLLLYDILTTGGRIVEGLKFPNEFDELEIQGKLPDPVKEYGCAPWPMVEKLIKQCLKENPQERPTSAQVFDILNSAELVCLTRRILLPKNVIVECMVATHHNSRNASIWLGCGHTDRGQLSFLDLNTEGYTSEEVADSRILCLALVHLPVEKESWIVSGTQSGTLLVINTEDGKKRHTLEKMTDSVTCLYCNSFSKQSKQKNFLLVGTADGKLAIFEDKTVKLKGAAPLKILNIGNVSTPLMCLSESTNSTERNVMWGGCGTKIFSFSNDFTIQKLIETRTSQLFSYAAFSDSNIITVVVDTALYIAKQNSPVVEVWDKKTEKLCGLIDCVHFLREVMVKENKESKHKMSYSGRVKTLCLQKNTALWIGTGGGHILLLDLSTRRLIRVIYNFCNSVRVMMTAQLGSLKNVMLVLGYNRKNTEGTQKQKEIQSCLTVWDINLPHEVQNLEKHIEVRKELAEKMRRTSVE
Mast/stem cell growth factor receptor Kit, sequence (P10721 26-976 D816V limits assumed): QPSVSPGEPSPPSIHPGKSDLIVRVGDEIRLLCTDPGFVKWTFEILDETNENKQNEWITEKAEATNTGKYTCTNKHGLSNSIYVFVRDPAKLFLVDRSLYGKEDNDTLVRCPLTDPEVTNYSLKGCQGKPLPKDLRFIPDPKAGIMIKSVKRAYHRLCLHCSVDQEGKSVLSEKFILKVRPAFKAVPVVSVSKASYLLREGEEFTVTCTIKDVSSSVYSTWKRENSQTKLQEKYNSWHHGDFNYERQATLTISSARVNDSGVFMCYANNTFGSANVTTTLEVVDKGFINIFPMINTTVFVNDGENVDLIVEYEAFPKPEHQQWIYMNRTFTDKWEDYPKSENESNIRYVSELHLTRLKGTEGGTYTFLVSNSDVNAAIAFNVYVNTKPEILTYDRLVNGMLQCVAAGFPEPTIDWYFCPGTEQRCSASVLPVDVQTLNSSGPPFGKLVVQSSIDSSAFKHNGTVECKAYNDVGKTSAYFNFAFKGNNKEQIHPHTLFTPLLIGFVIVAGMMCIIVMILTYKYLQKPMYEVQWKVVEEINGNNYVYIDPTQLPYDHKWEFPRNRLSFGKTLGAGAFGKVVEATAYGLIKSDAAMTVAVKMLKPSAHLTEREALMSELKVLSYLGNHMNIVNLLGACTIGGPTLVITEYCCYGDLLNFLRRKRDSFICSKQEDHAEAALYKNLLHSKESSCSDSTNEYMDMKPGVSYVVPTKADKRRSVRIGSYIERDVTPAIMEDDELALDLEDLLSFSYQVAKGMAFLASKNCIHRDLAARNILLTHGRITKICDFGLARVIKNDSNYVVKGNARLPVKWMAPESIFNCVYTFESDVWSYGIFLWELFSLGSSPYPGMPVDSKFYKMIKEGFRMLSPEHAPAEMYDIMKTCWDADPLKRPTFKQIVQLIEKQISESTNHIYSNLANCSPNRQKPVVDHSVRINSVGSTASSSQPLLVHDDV
Platelet-derived growth factor receptor alpha, sequence (P16234 24-1089 D842V limits assumed): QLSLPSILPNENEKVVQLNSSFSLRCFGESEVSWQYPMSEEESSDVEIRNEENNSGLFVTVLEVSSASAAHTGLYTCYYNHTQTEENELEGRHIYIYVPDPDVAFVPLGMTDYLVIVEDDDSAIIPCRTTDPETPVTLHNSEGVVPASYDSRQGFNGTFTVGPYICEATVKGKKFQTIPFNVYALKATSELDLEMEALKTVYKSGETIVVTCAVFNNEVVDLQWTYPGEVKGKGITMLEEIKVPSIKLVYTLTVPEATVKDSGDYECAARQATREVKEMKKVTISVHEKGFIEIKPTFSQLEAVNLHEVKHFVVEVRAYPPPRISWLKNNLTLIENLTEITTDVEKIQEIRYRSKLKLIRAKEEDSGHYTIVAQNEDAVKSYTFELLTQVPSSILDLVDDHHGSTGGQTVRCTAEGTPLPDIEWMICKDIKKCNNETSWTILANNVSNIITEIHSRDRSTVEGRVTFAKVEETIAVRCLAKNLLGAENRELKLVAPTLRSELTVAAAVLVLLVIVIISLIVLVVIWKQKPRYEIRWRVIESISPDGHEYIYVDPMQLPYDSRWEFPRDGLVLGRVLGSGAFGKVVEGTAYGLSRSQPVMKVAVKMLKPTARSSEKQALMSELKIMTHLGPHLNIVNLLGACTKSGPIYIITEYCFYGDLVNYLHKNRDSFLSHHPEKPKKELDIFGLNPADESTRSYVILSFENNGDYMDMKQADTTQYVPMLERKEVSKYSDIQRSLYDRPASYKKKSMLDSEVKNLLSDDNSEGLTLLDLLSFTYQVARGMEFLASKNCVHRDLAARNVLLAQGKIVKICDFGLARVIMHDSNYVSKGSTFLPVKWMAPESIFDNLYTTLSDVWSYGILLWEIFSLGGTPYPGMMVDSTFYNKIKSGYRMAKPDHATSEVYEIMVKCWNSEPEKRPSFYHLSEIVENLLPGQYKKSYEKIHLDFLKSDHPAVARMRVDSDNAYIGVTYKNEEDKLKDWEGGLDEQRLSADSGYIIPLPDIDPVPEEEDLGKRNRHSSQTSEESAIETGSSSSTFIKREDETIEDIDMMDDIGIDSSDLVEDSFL
Protease, sequence (Q9YQ12 whole entry): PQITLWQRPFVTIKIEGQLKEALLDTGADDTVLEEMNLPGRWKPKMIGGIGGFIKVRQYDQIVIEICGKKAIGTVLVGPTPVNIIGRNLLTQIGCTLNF

## O=C1NCCCOc2ccc3[nH]nc(c3c2)-c2cc(cc(N3CCC4(COC4)C3)c2)CO1
[1]
  IC50: < 10 nM

## Cc1ccc2ccc(N[C@H]3CC[C@H](CNc4ncc(C(F)(F)C(=O)NC5COC5)cn4)CC3)nc2c1Cl
[2]
  IC50: < 10 nM

## C[C@](N)(c1ccc(F)cc1)c1cnc(N2CCN(c3ncnn4cc(-c5cnn(CC6COC6)c5)cc34)CC2)nc1
[3]
  IC50: < 4.5 nM
[4]
  IC50: < 4.5 nM

## CC(C)(C)Cn1cc(Nc2ncc3c(Cl)c(N4CCN(C5(C)COC5)CC4)ccc3n2)cn1
[5]
  IC50: 9.7 nM

## COC(=O)N[C@H](C(=O)N[C@@H](Cc1ccc(C#Cc2ccc(N3CC4CCC(C3)N4C3COC3)nc2)cc1)[C@@H](O)CN(Cc1c(F)cc(-c2ccn(C(F)F)n2)cc1F)NC(=O)[C@@H](NC(=O)OC)C(C)(C)C(F)(F)F)C(C)(C)C(F)(F)F
Protease
  EC50: 4.8 nM

## c1cn2cc(-c3ccc4cn[nH]c4c3)nc(Nc3ccc(N4CCOCC4)cc3)c2n1 [ENTOSPLETINIB]
[6]
  CLH: 5.17 mL/min/kg

## Nc1cncc(-c2cn3ccnc3c(Nc3ccc(N4CCN(C5COC5)CC4)cc3)n2)n1 [LANRAPLENIB]
[6]
  CLH: < 1.83 mL/min/kg
[7]
  solubility: > 100 µM

— ChEMBL document CHEMBL5365465, “Oxetanes in Drug Discovery Campaigns” (J Med Chem, 2023)
